Source: article PMC9914026, “Identification of a Novel ACE Inhibitory Hexapeptide from Camellia Seed Cake and Evaluation of Its Stability” (Foods, 2023)
Peptide text beside a SMILES is read from it.

How the values were obtained:
[1] = biological target: T1, Angiotensin I-converting enzyme (ACE) from rabbit lungs (Oryctolagus cuniculus, UniProt P12822); test: Stability after in vitro treatment with digestive enzymes (pepsin, trypsin); type: in vitro ADME; settings: 0.4 mg/mL, 2 h, read-out ACE inhibition rate, n = 3
T1 construct: Angiotensin I-converting enzyme (ACE) from rabbit lungs (0.1 U); purchased Sigma-Aldrich (St. Louis, MO, USA); host or cells: rabbit lung tissue
T1 sequence (P12822 34-1310): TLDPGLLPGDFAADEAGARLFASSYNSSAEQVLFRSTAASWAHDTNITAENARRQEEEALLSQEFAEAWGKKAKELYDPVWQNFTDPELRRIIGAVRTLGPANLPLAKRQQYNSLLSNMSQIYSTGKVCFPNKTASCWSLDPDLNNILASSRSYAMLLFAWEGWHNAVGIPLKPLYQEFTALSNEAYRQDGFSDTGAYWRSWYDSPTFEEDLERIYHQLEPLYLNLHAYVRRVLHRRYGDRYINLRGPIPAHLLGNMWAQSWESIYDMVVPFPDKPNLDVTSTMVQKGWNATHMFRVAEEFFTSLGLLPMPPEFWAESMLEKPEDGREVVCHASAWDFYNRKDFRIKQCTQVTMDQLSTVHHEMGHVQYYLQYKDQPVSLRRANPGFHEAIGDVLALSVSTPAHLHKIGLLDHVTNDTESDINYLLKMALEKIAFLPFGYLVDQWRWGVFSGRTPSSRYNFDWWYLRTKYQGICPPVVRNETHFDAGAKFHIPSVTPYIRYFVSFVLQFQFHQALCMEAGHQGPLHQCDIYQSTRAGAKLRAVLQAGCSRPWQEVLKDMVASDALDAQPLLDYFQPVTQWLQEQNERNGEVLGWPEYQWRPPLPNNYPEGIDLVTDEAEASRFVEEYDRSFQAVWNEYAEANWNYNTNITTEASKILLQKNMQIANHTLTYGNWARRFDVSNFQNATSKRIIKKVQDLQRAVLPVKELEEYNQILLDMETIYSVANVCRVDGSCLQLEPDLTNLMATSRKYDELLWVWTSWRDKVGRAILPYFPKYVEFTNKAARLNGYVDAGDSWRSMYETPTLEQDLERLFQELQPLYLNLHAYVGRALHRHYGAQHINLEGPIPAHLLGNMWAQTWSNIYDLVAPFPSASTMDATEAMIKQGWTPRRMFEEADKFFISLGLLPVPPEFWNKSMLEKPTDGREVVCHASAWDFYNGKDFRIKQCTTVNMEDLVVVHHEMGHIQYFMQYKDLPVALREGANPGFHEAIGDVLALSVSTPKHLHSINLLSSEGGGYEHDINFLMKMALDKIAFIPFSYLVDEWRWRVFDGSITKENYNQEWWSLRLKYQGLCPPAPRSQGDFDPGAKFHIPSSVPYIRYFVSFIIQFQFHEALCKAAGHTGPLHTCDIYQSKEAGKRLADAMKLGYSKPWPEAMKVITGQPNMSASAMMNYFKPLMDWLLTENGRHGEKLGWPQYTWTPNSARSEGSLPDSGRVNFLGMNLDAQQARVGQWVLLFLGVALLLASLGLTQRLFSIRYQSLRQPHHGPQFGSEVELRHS
Experimental: (§1) The ACE inhibition rate was determined using High-Performance Liquid Chromatography (HPLC). In summary, 60 μL of HHL (2.5 mM) and 20 μL of samples were mixed and incubated at 37 °C for 5 min before 40 μL of ACE (0.05 U/mL) was added. The mixture was incubated at 37 °C for 1 h. Finally, the reaction was terminated by adding 120 μL of HCl solution (1 mol/L). The content of HA in the reaction system was detected by a PITC pre-column derivatization HPLC (Shimadzu LC-20AT) with a column C18 Hypersil ODS2 (4.6 mm×250 mm, 5 μm) at 228 nm. Isocratic elution was processed with the acetonitrile-water (volume ratio 1:3, each containing 0.1% TFA) solution at a constant flow rate of 1 mL/min. The ACE inhibition rate (%) was calculated based on the following formula:ACE inhibition rate (%) = [(A0 − A1) / A0] × 100%(4) where A0 and A1 equal the HA peak areas of the blank control and sample, respectively.
The stability of VVVPQN after in vitro treatment with digestive enzymes was carried out by the method of Chai with some modifications. Briefly, in a water bath at 37 °C, VVVPQN (0.4 mg/mL) was first digested with 2% (w/w) pepsin at pH 2.0 for 2 h. The pH was then adjusted to 7.0 before trypsin was added at a 1:50 enzyme to substrate ratio. […] The stability of VVVPQN was evaluated by comparing the ACE inhibition rate before and after the digestion.

[2] = biological target: T1, Angiotensin I-converting enzyme (ACE) from rabbit lungs; test: ACE inhibitory activity (HHL substrate, HPLC of hippuric acid); type: biochemical
Source text: Camellia seeds were purchased from Quzhou City, Zhejiang Province. Angiotensin I-converting enzyme (ACE) from rabbit lungs (0.1 U) (Table A1), ACE substrate hippuryl-histidyl-leucine (HHL) and hippuric acid (HA) standards were purchased from Sigma-Aldrich (St. Louis, MO, USA). Neutral protease (50,000 U/g), alkaline protease (200,000 U/g), papain (800,000 U/g), trypsin (250,000 U/g), and Sephadex G-25 were purchased from Beijing Solarbio Science & Technology Co., Ltd. (Beijing, China). All other chemicals used were of analytical grade.
as §1, with “The ACE inhibition rate (%) was calculated based on the following formula:ACE inhibition rate (%) = [(A0 − A1) / A0] × 100%(4) where A0 and A1 equal the HA peak areas of the blank control and sample, respectively.” left out

Change of ACE inhibitory activity after simulated gastric digestion ([1]; 2% (w/w) pepsin, pH 2.0, 37 °C): decreased significantly | Change of ACE inhibitory activity after further simulated intestinal digestion ([1]; after pepsin: trypsin 1:50 enzyme to substrate, pH 7.0, 37 °C): did not change significantly | IC50 ([2]; from regression equation y = 23.595 ln(x) + 98.175): 199 µM | ACE inhibitory activity ([2]; synthetic peptide 0.5 mg/mL, HHL 2.5 mM, ACE 0.05 U/mL, 37 °C 1 h, HPLC 228 nm, mean, n = 3): 80.46%
SMILES: CC(C)[C@H](N)C(=O)N[C@H](C(=O)N[C@H](C(=O)N1CCC[C@H]1C(=O)N[C@@H](CCC(N)=O)C(=O)N[C@@H](CC(N)=O)C(=O)O)C(C)C)C(C)C [VVVPQN, Val-Val-Val-Pro-Gln-Asn] (H-VVVPQN-OH)
